Columns and labels:
[1] = Molar enthalpy of transition or fusion; details: Crystal
[2] = molar heat capacity at constant pressure; details: 101.33 kPa
[3] = Crystal

CCCCCCCCCCCC(=O)O.Cc1cc(C)nc(Nc2ccccc2)n1 [4,6-dimethyl-N-phenylpyrimidin-2-amine dodecanoate]
Details | Molar enthalpy of transition or fusion [kcal/mol] | Triple point temperature [K]
[1] | 16.07 | –
[3] | – | 321.52

[2]
Details | molar heat capacity at constant pressure [J/K/mol]
78.4 K, Crystal | 214.56
80.59 K, Crystal | 219.02
82.77 K, Crystal | 224.04
84.91 K, Crystal | 229.03
87.02 K, Crystal | 231.07
89.13 K, Crystal | 235.38
91.21 K, Crystal | 238.58
93.27 K, Crystal | 241.25
95.35 K, Crystal | 244.45
97.44 K, Crystal | 249.07
99.52 K, Crystal | 255.64
101.56 K, Crystal | 258.48
103.55 K, Crystal | 262.85
105.48 K, Crystal | 266.32
107.37 K, Crystal | 268.87
109.23 K, Crystal | 272.45
111.05 K, Crystal | 277.04
112.84 K, Crystal | 280.4
114.62 K, Crystal | 283.66
116.37 K, Crystal | 286.19
118.1 K, Crystal | 289.83
119.81 K, Crystal | 291.78
121.5 K, Crystal | 295.26
123.18 K, Crystal | 299.07
124.85 K, Crystal | 302.36
126.5 K, Crystal | 305.27
128.13 K, Crystal | 309.31
129.75 K, Crystal | 313.47
131.36 K, Crystal | 316.7
133.51 K, Crystal | 320.85
136.04 K, Crystal | 325.43
138.47 K, Crystal | 328.35
140.85 K, Crystal | 332.7
143.2 K, Crystal | 334.95
145.52 K, Crystal | 336.56
147.82 K, Crystal | 338.15
150.09 K, Crystal | 340.57
152.34 K, Crystal | 342.79
154.57 K, Crystal | 344.26
156.78 K, Crystal | 346.53
158.98 K, Crystal | 347.92
161.16 K, Crystal | 351.38
163.31 K, Crystal | 355.11
165.46 K, Crystal | 356.7
167.59 K, Crystal | 360.16
169.71 K, Crystal | 363.66
171.81 K, Crystal | 365.89
173.91 K, Crystal | 368.25
175.99 K, Crystal | 370.24
178.06 K, Crystal | 374.92
180.1 K, Crystal | 378.77
182.13 K, Crystal | 381.27
184.16 K, Crystal | 384.86
186.15 K, Crystal | 387.43
188.14 K, Crystal | 391.88
190.11 K, Crystal | 393.71
192.06 K, Crystal | 396.41
194.01 K, Crystal | 400.38
195.94 K, Crystal | 403.84
197.86 K, Crystal | 406.78
199.77 K, Crystal | 410.78
201.68 K, Crystal | 414.73
203.58 K, Crystal | 416.01
205.49 K, Crystal | 418.67
207.39 K, Crystal | 423.8
209.27 K, Crystal | 427.28
213.63 K, Crystal | 430.93
215.48 K, Crystal | 433.69
217.33 K, Crystal | 437.16
219.16 K, Crystal | 440.33
220.99 K, Crystal | 444.57
222.81 K, Crystal | 447.12
224.61 K, Crystal | 450.71
226.4 K, Crystal | 454.16
228.17 K, Crystal | 457.43
229.91 K, Crystal | 461.64
231.66 K, Crystal | 464.26
233.45 K, Crystal | 468.99
235.26 K, Crystal | 472.26
237.06 K, Crystal | 475.98
238.86 K, Crystal | 479.33
240.62 K, Crystal | 485.92
242.33 K, Crystal | 489.49
244.03 K, Crystal | 494.38
245.76 K, Crystal | 499.28
248.1 K, Crystal | 502
250.99 K, Crystal | 505.26
253.79 K, Crystal | 509.97
256.52 K, Crystal | 514.43
259.21 K, Crystal | 517.59
261.87 K, Crystal | 521.36
264.51 K, Crystal | 524.15
267.13 K, Crystal | 529.61
269.73 K, Crystal | 533.73
272.3 K, Crystal | 537.73
274.79 K, Crystal | 541.43
277.25 K, Crystal | 545.05
279.67 K, Crystal | 549.95
282.04 K, Crystal | 553.99
284.36 K, Crystal | 557.02
286.64 K, Crystal | 560.07
288.9 K, Crystal | 564.82
291.1 K, Crystal | 568.54
293.23 K, Crystal | 573.27
295.4 K, Crystal | 577.71
297.6 K, Crystal | 582.62
299.78 K, Crystal | 586.55
301.95 K, Crystal | 590.35
304.05 K, Crystal | 595.77
306.13 K, Crystal | 598.65
308.2 K, Crystal | 604.09
323.46 K, Liquid | 830.56
325.28 K, Liquid | 836.77
327.09 K, Liquid | 842.17
328.88 K, Liquid | 847.91
330.65 K, Liquid | 851.32
332.41 K, Liquid | 855.64
334.15 K, Liquid | 860.22
335.87 K, Liquid | 866.7
337.57 K, Liquid | 869.28
339.26 K, Liquid | 872.85

— the NIST ThermoML archive (doi:10.1016/j.jct.2004.06.002)
